Laboratory results: PMC3702004, “Comparison of Intake and Systemic Relative Effect Potencies of Dioxin-like Compounds in Female Mice after a Single Oral Dose” (Environmental Health Perspectives, 2013)

Assays:
Cyp1a2 mRNA in liver = test: Cyp1a2 gene expression in liver (real-time PCR); format: in vivo, female C57BL/6 mice; conditions: for BMR20TCDD Liver Cyp1a2 mRNA: 3 days after single oral dose; for REP Liver Cyp1a2 mRNA: relative to TCDD
Protocol: Animals. Eight-week-old female C57BL/6 mice (Harlan laboratories, Venray, the Netherlands) were randomly assigned to treatment groups (six animals per group) and allowed to acclimate for 1.5 weeks. The animals were housed in groups in standard cages and conditions (23 ± 2°C, 50–60% relative humidity, 12-hr dark/light cycle) with free access to food and water. Mice received a single dose of test compound by oral gavage at a dosing volume of 10 mL/kg body weight (BW). Mice treated with corn oil vehicle (10 mL/kg BW) served as controls. For each congener, five different doses were administered, ranging from 0.5–100 μg/kg BW (TCDD) to 5,000–500,000 µg/kg BW (PCB-153). Detailed information on doses is provided in Supplemental Material, Table S1 (http://dx.doi.org/10.1289/ehp.1206336). On day 3 after dosing, animals were euthanized by CO2/O2 asphyxiation, and blood was immediately collected from the abdominal aorta. The liver, thymus, spleen, and adipose tissue were removed, weighed (liver, thymus, and spleen), snap frozen, and stored at –80°C. All animal treatments were performed with permission of the Animal Ethical Committee (DEC Utrecht) and performed according to the [Law on Animal Experiments (1977)]. Animals were treated humanely and with regard for alleviation of suffering.
RNA isolation and quantitative real-time polymerase chain reaction (PCR). Total RNA was isolated from liver and PBLs using a QIAGEN RNeasy kit (QIAGEN). Purity and concentration of the isolated RNA was determined by measuring the absorbance ratio at 260/280 nm and 230/260 nm with a Nanodrop 2000 spectrophotometer (Thermo Scientific, Asheville, NC, USA). RNA was reverse transcribed to complementary DNA (cDNA) using the iScript cDNA synthesis Kit (Bio-Rad, Veenendaal, the Netherlands). Quantitative real-time PCR analyses were performed using the iQ Real-Time PCR Detection System with SYBR green (Bio-Rad). Amplification reactions were set up with […] containing 12.5 μL iQ SYBR Green Supermix (Bio-rad), 0.5 μL distilled H2O, 1 μL (10 μM) forward primer, 1 μL (10 μM) reverse primer, and 10 μL first strand cDNA (10X diluted). Primer sequences were as follows: Cyp1a1: forward-5´-GGTTAACCATGACCGGGAACT-3´ and reverse-5´-TGCCCAAACCAAAGAGAGTGA-3´ ([Schulz et al. 2012]); Cyp1a2: forward-5´-ACATTCCCAAGGAGCGCTGTATCT-3´ and reverse-5´-GTCGATGGCCGAGTTGTTATTGGT-3´ ([Flaveny et al. 2010]); Cyp1b1: forward-5´-GTGGCTGCTCATCCTCTTTACC-3´ and reverse-5´-CCCACAACCTGGTCCAACTC-3´ ([Berge et al. 2004]); β-actin: forward-5´-ATGCTCCCCGGGCTGTAT-3´ and reverse-5´-CATAGGAGTCCTTCTGACCCATTC-3´ ([Schulz et al. 2012]). All primers were run through the National Center for Biotechnology Information Primer-BLAST database (http://www.ncbi.nlm.nih.gov/tools/primer-blast/) to confirm specificity and validate for optimal annealing temperature (60°C for all primers) and efficiency. The efficiency of all primer pairs was 98–102% (tested at 60°C). The following program was used for denaturation and amplification of cDNA: 3 min at 95°C, followed by 40 cycles of 15 sec at 95°C and 45 sec at 60°C. Gene expression for each sample was expressed as threshold cycle (Ct), normalized to the reference gene β-actin (ΔCt). We calculated fold induction relative to the control group.
Data analysis. We obtained concentration–response curves using a sigmoidal dose–response nonlinear regression curve fit with variable slope (GraphPad Prism 6.01; GraphPad Software Inc., San Diego, CA, USA):
In this Hill equation, y is the dependent variable (EROD activity or fold induction of mRNA levels), x the independent variable (administered or systemic dose), E0 is the estimated background response level, Emax is the maximum response, b is the estimated median effective concentration (EC50), and n is the shaping parameter of the Hill curve.
Using the congener-specific BMR20TCDD concentration, REPs were calculated relatively to TCDD: […]

[1] = toxic equivalency factor relative to TCDD; ref Van den Berg et al. 2006; cited from earlier work
[2] = dose metric Adm dose (µg/kg BW)
[3] = dose metric Syst adipose (ng/g lipid)
[4] = dose metric Syst liver (ng/g lipid)
[5] = dose metric Syst liver (ng/g liver)
[6] = dose metric Syst plasma (ng/g lipid)

## Clc1cc2oc3c(Cl)c(Cl)c(Cl)cc3c2cc1Cl [Congener 4-PeCDF, 2,3,4,7,8-pentachlorodibenzofuran]
Cyp1a2 mRNA in liver; dose metric Adm dose
  BMR20TCDD Liver Cyp1a2 mRNA: 8.83 µg/kg BW
Cyp1a2 mRNA in liver; dose metric Syst adipose
  BMR20TCDD Liver Cyp1a2 mRNA: 6.53 ng/g lipid
Cyp1a2 mRNA in liver; dose metric Syst plasma
  BMR20TCDD Liver Cyp1a2 mRNA: 8.01 ng/g lipid
Cyp1a2 mRNA in liver; [2]
  REP Liver Cyp1a2 mRNA: 0.05
Cyp1a2 mRNA in liver; [3]
  REP Liver Cyp1a2 mRNA: 0.3
Cyp1a2 mRNA in liver; [4]
  REP Liver Cyp1a2 mRNA: 0.03
Cyp1a2 mRNA in liver; [5]
  REP Liver Cyp1a2 mRNA: 0.04
Cyp1a2 mRNA in liver; [6]
  REP Liver Cyp1a2 mRNA: 0.2
[1]
  WHO-TEF: 0.3

## Clc1ccc(-c2cc(Cl)c(Cl)cc2Cl)cc1Cl [PCB-118, 2,3´,4,4´,5-pentachlorobiphenyl]
Cyp1a2 mRNA in liver; dose metric Adm dose
  BMR20TCDD Liver Cyp1a2 mRNA: 15,522 µg/kg BW
Cyp1a2 mRNA in liver; dose metric Syst adipose
  BMR20TCDD Liver Cyp1a2 mRNA: 117,517 ng/g lipid
Cyp1a2 mRNA in liver; dose metric Syst plasma
  BMR20TCDD Liver Cyp1a2 mRNA: 103,230 ng/g lipid
Cyp1a2 mRNA in liver; [2]
  REP Liver Cyp1a2 mRNA: 0.00003
Cyp1a2 mRNA in liver; [3]
  REP Liver Cyp1a2 mRNA: 0.00001
Cyp1a2 mRNA in liver; [4]
  REP Liver Cyp1a2 mRNA: 0.0002
Cyp1a2 mRNA in liver; [5]
  REP Liver Cyp1a2 mRNA: 0.0003
Cyp1a2 mRNA in liver; [6]
  REP Liver Cyp1a2 mRNA: 0.00002
[1]
  WHO-TEF: 0.00003

## Clc1ccc(-c2cc(Cl)c(Cl)c(Cl)c2)cc1Cl [PCB-126, 3,3´,4,4´,5-pentachlorobiphenyl]
Cyp1a2 mRNA in liver; dose metric Adm dose
  BMR20TCDD Liver Cyp1a2 mRNA: 87.4 µg/kg BW
Cyp1a2 mRNA in liver; dose metric Syst adipose
  BMR20TCDD Liver Cyp1a2 mRNA: 120 ng/g lipid
Cyp1a2 mRNA in liver; dose metric Syst plasma
  BMR20TCDD Liver Cyp1a2 mRNA: 135 ng/g lipid
Cyp1a2 mRNA in liver; [2]
  REP Liver Cyp1a2 mRNA: 0.005
Cyp1a2 mRNA in liver; [3]
  REP Liver Cyp1a2 mRNA: 0.01
Cyp1a2 mRNA in liver; [4]
  REP Liver Cyp1a2 mRNA: 0.002
Cyp1a2 mRNA in liver; [5]
  REP Liver Cyp1a2 mRNA: 0.003
Cyp1a2 mRNA in liver; [6]
  REP Liver Cyp1a2 mRNA: 0.01
[1]
  WHO-TEF: 0.1

## Clc1ccc(-c2cc(Cl)c(Cl)c(Cl)c2Cl)cc1Cl [PCB-156, 2,3,3´,4,4´,5-hexachlorobiphenyl]
Cyp1a2 mRNA in liver; dose metric Adm dose
  BMR20TCDD Liver Cyp1a2 mRNA: 12,085 µg/kg BW
Cyp1a2 mRNA in liver; dose metric Syst adipose
  BMR20TCDD Liver Cyp1a2 mRNA: 22,134 ng/g lipid
Cyp1a2 mRNA in liver; dose metric Syst plasma
  BMR20TCDD Liver Cyp1a2 mRNA: 60,702 ng/g lipid
Cyp1a2 mRNA in liver; [2]
  REP Liver Cyp1a2 mRNA: 0.00003
Cyp1a2 mRNA in liver; [3]
  REP Liver Cyp1a2 mRNA: 0.00008
Cyp1a2 mRNA in liver; [4]
  REP Liver Cyp1a2 mRNA: 0.0003
Cyp1a2 mRNA in liver; [5]
  REP Liver Cyp1a2 mRNA: 0.0006
Cyp1a2 mRNA in liver; [6]
  REP Liver Cyp1a2 mRNA: 0.00003
[1]
  WHO-TEF: 0.00003

## Clc1cc2c(cc1Cl)Oc1c(cc(Cl)c(Cl)c1Cl)O2 [PeCDD, 1,2,3,7,8-pentachlorodibenzodioxin]
Cyp1a2 mRNA in liver; dose metric Adm dose
  BMR20TCDD Liver Cyp1a2 mRNA: 0.56 µg/kg BW
Cyp1a2 mRNA in liver; dose metric Syst adipose
  BMR20TCDD Liver Cyp1a2 mRNA: 1.20 ng/g lipid
Cyp1a2 mRNA in liver; dose metric Syst plasma
  BMR20TCDD Liver Cyp1a2 mRNA: 2.36 ng/g lipid
Cyp1a2 mRNA in liver; [2]
  REP Liver Cyp1a2 mRNA: 0.7
Cyp1a2 mRNA in liver; [3]
  REP Liver Cyp1a2 mRNA: 1
Cyp1a2 mRNA in liver; [4]
  REP Liver Cyp1a2 mRNA: 0.5
Cyp1a2 mRNA in liver; [5]
  REP Liver Cyp1a2 mRNA: 0.6
Cyp1a2 mRNA in liver; [6]
  REP Liver Cyp1a2 mRNA: 0.8
[1]
  WHO-TEF: 1

## Clc1cc2c(cc1Cl)Oc1cc(Cl)c(Cl)cc1O2 [TCDD, 2,3,7,8-tetrachlorodibenzodioxin, reference compound]
Cyp1a2 mRNA in liver; dose metric Adm dose
  BMR20TCDD Liver Cyp1a2 mRNA: 0.41 µg/kg BW
Cyp1a2 mRNA in liver; dose metric Syst adipose
  BMR20TCDD Liver Cyp1a2 mRNA: 1.73 ng/g lipid
Cyp1a2 mRNA in liver; dose metric Syst plasma
  BMR20TCDD Liver Cyp1a2 mRNA: 1.85 ng/g lipid
Cyp1a2 mRNA in liver; [2]
  REP Liver Cyp1a2 mRNA: 1
Cyp1a2 mRNA in liver; [3]
  REP Liver Cyp1a2 mRNA: 1
Cyp1a2 mRNA in liver; [4]
  REP Liver Cyp1a2 mRNA: 1
Cyp1a2 mRNA in liver; [5]
  REP Liver Cyp1a2 mRNA: 1
Cyp1a2 mRNA in liver; [6]
  REP Liver Cyp1a2 mRNA: 1
[1]
  WHO-TEF: 1
